Assay results as given in patent US11420922B2, “Hydroxylated tropolone inhibitors of nucleotidyl transferases in herpesvirus and Hepatitis B and uses therefor” (Saint Louis University, priority 2015, dated 2022).

Key:
[1] = system: TK-deficient mutant of HSV-2 strain 333, ΔTK-; assay: Replication of acyclovir-resistant TK-deficient HSV-2 mutant in Vero cells; type: cell-based, herpes simplex virus 2; conditions: 5 μM, 24 hr, FIG. 4
Procedure: FIGS. 4A & 4B. Sensitivity of thymidine kinase-deficient HSV-2 to αHT compounds. […] Duplicate cultures were collected 24 hours post-infection and infectious virus titers were determined by plaque assay. Titers in compound-treated samples were subtracted from DMSO-treated samples. Values are the averages±one standard error of the mean. α-Hydroxytropolones inhibit an ACV-resistant mutant of HSV-2. […] Log10 suppression was determined relative to the diluent control. Data are the averages of data from duplicate samples±ranges from one of two independent experiments at each concentration.
Vero cells were maintained in Dulbecco's modified Eagle's medium (DMEM) containing 3% newborn calf serum, 3% bovine growth serum, 2 mM L-glutamine and 100 IU/mL penicillin and 0.1 mg/mL streptomycin (P/S). HSV-1 #6 and HSV-2 #1 are de-identified clinical isolates from the Saint Louis University Hospital. Stocks were prepared after a single passage in cell culture and were titered by standard plaque assay (Knipe and Spang, 1982). Wild-type HSV-2 used in FIG. 3 was laboratory strain 333. The TK-deficient mutant of HSV-2 strain 333, ΔTK-, contains a 180-bp KpnI-KpnI deletion in the UL23 open reading frame that abrogates TK activity (McDermott, et al, 1984). ΔTK- was the generous gift of Jim Smiley. Virus stocks were grown and titered on Vero cells (Morrison and Knipe, 1996).
HSV TK-deficient mutants are therefore insensitive to ACV. […] Vero cells were infected with a laboratory strain of HSV-2 and an engineered TK-deficient mutant of the same strain.

HBV = HBV replication assay in HepDES19 cells; type: cell-based; conditions: Hepatitis B virus; HepDES19 cells; read-out: EC50 (HBV assay)
Procedure, shortened: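 HepDES19 cells induced by tetracycline withdrawal, then compound applied 48 h later in duplicate (1% DMSO final) and refreshed daily for two more days. After micrococcal nuclease digestion, capsid-associated HBV DNA purified and plus- and minus-strand DNA quantified by TaqMan PCR.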

Cc1cc(O)c(=O)c(O)cc1C(=O)c1ccc(-c2ccccc2)cc1 [Compound 118]
inhibition of the TK-mutant strain, in words [1]: efficiently inhibited
EC50 (HBV): 6 µM
